Source: patent US20120004246A1, “PURINYL DERIVATIVES AND THEIR USE AS POTASSIUM CHANNEL MODULATORS” (NeuroSearch A/S, priority 2007, published 2012)

Biological target: T1, hSK3 channels (Homo sapiens, UniProt Q9UGI6)
T1 construct: expressed in transfected cells; host or cells: HEK293
Test: whole-cell patch-clamp of SK3 current in HEK293 cells expressing hSK3 channels
Assay type: cell-based
Conditions: SK3 activation
Method: The ionic current through small-conductance Ca^2+-activated K^+ channels (SK channels, subtype 3) is recorded using the whole-cell configuration of the patch-clamp technique in a classic patch-clamp set-up using HEK293 tissue culture cells expressing hSK3 channels as described in e.g. WO 2006/100212.
The SC100 value determined is defined as the Stimulating Concentration required for increasing the baseline current by 100%. The below SC100 values are an indication of the SK3 activating properties of the compounds of the invention.

Row | SMILES | SC100 (Stimulating Concentration required for increasing the baseline current by 100%) [µM]
1 | Cc1cc(C)n(-c2nc(Nc3ccc(F)c(F)c3)c3ncn(C)c3n2)n1 [Compound 6.1, (3,4-Difluoro-phenyl)-(2-(3,5-dimethyl-pyrazol-1-yl)-9-methyl-9H-purin-6-yl)-amine] | 0.02
2 | CCn1cnc2c(Nc3ccc(Cl)c(Cl)c3)nc(-n3nc(C)cc3C)nc21 [Compound 4.1, (3,4-Dichloro-phenyl)-[2-(3,5-dimethyl-pyrazol-1-yl)-9-ethyl-9H-purin-6-yl]-amine] | 0.04
